In US20250073311A1, “DOSAGE REGIME” (ZEALAND PHARMA A/S, priority 2021, published 2025):
Several values for one entry are separate records, joined by “and”; a condition that tells them apart may be missing. Identical values can stand only once. Like-named read-outs stand apart in the source and are kept apart here. Numbered stars: 1 amine (or outer) side, 2 acyl side, 3 side chain; on linkers, the order of the positions; unused ones are H or OH. Square brackets hold non-standard residues; d marks the D form. Side chains are listed from the residue outwards. Peptide text beside a SMILES is read from it. * marks the point of attachment. C18 diacid = O=C(O)CCCCCCCCCCCCCCCCC(=O)*; γGlu = O=C(O)[C@H](CCC(=O)[*:2])N[*:1]; Aib = CC(C)(N)C(=O)O

Key:
[1] = test system: healthy human subjects; test: Mixed meal test (breakfast), Phase 1b trial; type: in vivo
Description: Reduction in appetite is reflected in the reduction in food intake measured by mixed meal test for breakfast (Table 11) and by measuring caloric intake at standard meals for lunch and dinner (Table 12).
The Mixed Meal Test (MMT) was performed at baseline, at 24 hours, after the first dosing (Day 2) and after the fourth dosing (Day 23). The meal consisted of a fixed nutrient content and the exact initial amount of nutrients were weighed by kitchen staff on a lab scale using the method of weighed intake. Consumption was supervised and leftovers were weighed and recorded as percentage of meal. Adjustment of leftovers on Day 2 will be performed for Day 23 and differences in weight will be calculated in carbohydrates.

[2] = Plasma half-life in single ascending dose Phase 1a trial (LC-MS/MS); type: in vivo; conditions: human
Description: Blood sampling for determining Cpd 18 plasma concentrations were performed during the phase la study (outlined in Example 2) at scheduled timepoints. Concentration of Cpd 18 in plasma was measured using a validated LC-MS/MS assay. Pharmacokinetic (PK) endpoints for Cpd 18 were derived from the individual concentration profiles (with hour as time unit). For PK analysis, Cpd 18 concentrations were supplied by the analytical laboratory in nmol/L. Mean measured concentrations per dose level are shown in […].
For determination of λz a linear regression was performed using the logarithm to plasma Cpd. 18 concentration as the response variable and at least three valid concentration measurements of the terminal end period after Cmax. (The exact number of data points depends on the best goodness-of-fit). Cmax is not included in the calculation for λz as this point may be affected by absorption still taking place from the injection site.
The terminal elimination half-life of the plasma Cpd. 18 profile (t½) was calculated by the following formula: […]

[3] = test system: healthy human subjects; test: Multiple ascending dose Phase 1b trial, adverse events; type: in vivo; conditions: 7 subjects
Description: A multiple ascending dose Phase 1b trial was conducted for Cpd. 18 investigating the safety of multiple subcutaneous injections of various ascending doses in healthy human subjects. The trial was a Randomized, Double-blind, Placebo-controlled, Multi Ascending Dose Trial assessing Safety, Tolerability, Pharmacokinetics and Pharmacodynamics of Multiple Subcutaneous Dose of Cpd. 18 in Healthy human Subjects.
Four cohorts were dosed with four once weekly subcutaneous administrations. In each cohort, consisting of 10 subjects each, subjects were randomized to either placebo (n=3) or to the following active multiple ascending dose levels (n=7): 4 weekly dose injections of 1.0 mg; 4 weekly dose injections of 2.25 mg; 4 weekly dose injections of 3.5 mg and 1 weekly dose injections of 3.5 mg followed by 3 weekly dose injections of 6.0 mg.
Adverse events (AE) were captured by asking open ended and non-leading questions according to the following wording in the protocol:
(§1) • All events meeting the definition of an AE must be collected and reported from the first trial-related activity after the subject has signed the informed consent and until the end of the post-treatment follow-up period. At each contact with the site (Visit or telephone) the subject must be asked about AEs. All AEs, either observed by the Investigator or reported by the subject, must be recorded by the Investigator and evaluated. • The Investigator should record the diagnosis, if possible. If no diagnosis can be made the Investigator should record each sign and symptom as individual AEs. • All AEs must be recorded by the Investigator. One single Adverse Event Form must be used per AE from start to resolution. For Serious Adverse Events (SAE), the Serious Adverse Event Form must also be completed.”
The safety data (incidence/number of subjects) for subjects dosed 4×1.0 mg to 1×3.5 mg plus 3×6.0 mg as well as placebo is shown in Table 10 below.

[4] = test system: healthy human subjects; test: Single ascending dose Phase 1a trial, adverse events; type: in vivo; conditions: 6 subjects
Description: A single ascending dose Phase 1a trial was conducted for Cpd. 18 investigating the safety of single subcutaneous injections of doses ranging from 0.02 mg to 7.5 mg in healthy human subjects.
The phase 1a study was a First in Human, Randomized, Double-blind, Placebo-controlled, Single Ascending Dose Trial assessing Safety, Tolerability, Pharmacokinetics and Pharmacodynamics of a Single Subcutaneous Dose of Cpd. 18 in Healthy human Subjects.
Eight cohorts (dose levels: 0.02, 0.07, 0.2, 0.6, 1.5, 3.0, 6.0 and 7.5 mg) were given in this first in human trial. Eight subjects were allocated to the following ascending dose levels: 0.02, 0.07, 0.2, 0.6, 1.5, 3.0, 6.0 and 7.5 mg.
Adverse events (AE) were captured by asking open ended and nonleading questions according to the following wording in the protocol:
as §1

[5] = Body weight in Phase 1b trial; type: in vivo, human; conditions: four once weekly s.c. doses, 1.0 mg to 3.5/6.0 mg, healthy subjects, FIG. 3
[6] = 1 × 3.5 mg plus 3 × 6.0 mg weekly s.c.

half-life ([2]; sc, single s.c. dose 0.02 mg, healthy subjects, N 6, read-out: t1/2 Mean (converted)): 140 h
half-life ([2]; sc, single s.c. dose 0.07 mg, healthy subjects, N 6, read-out: t1/2 Mean (converted)): 126 h
half-life ([2]; sc, single s.c. dose 0.2 mg, healthy subjects, N 6, read-out: t1/2 Mean (converted)): 129 h
half-life ([2]; sc, single s.c. dose 0.6 mg, healthy subjects, N 6, read-out: t1/2 Mean (converted)): 110 h
half-life ([2]; sc, single s.c. dose 1.5 mg, healthy subjects, N 6, read-out: t1/2 Mean (converted)): 120 h
half-life ([2]; sc, single s.c. dose 3 mg, healthy subjects, N 6, read-out: t1/2 Mean (converted)): 120 h
half-life ([2]; sc, single s.c. dose 6 mg, healthy subjects, N 6, read-out: t1/2 Mean (converted)): 112 h
half-life ([2]; sc, single s.c. dose 7.5 mg, healthy subjects, N 6, read-out: t1/2 Mean (converted)): 135 h
half-life ([2]; subcutaneous, following a single dose, across dose groups, read-out: calculated mean half-life): 110 to 135 h
Structure (SMILES): CC[C@H](C)[C@H](NC(=O)[C@H](Cc1ccccc1)NC(=O)[C@H](CC(=O)O)NC(=O)[C@H](CCCNC(=N)N)NC(=O)[C@H](C)NC(=O)[C@H](C)NC(=O)[C@H](CCC(N)=O)NC(=O)[C@H](CCCCNC(=O)CC[C@H](NC(=O)CCCCCCCCCCCCCCCCC(=O)O)C(=O)O)NC(=O)[C@H](CC(=O)O)NC(=O)[C@H](CC(C)C)NC(=O)[C@@H](NC(=O)[C@@H](NC(=O)[C@H](C)NC(=O)[C@H](CC(C)C)NC(=O)[C@H](CCC(=O)O)NC(=O)[C@H](CO)NC(=O)[C@@H](NC(=O)[C@H](Cc1ccccc1)NC(=O)[C@H](CO)NC(=O)CNC(=O)[C@H](CCC(=O)O)NC(=O)C(C)(C)NC(=O)[C@@H](N)Cc1c[nH]cn1)[C@@H](C)O)[C@@H](C)O)[C@@H](C)CC)C(=O)N[C@@H](C)C(=O)N[C@@H](Cc1c[nH]c2ccccc12)C(=O)N[C@@H](CC(C)C)C(=O)N[C@H](C(=O)N[C@@H](CCC(N)=O)C(=O)N[C@@H](Cc1c[nH]cn1)C(=O)N[C@@H](CCCCN)C(=O)N[C@H](C(=O)N[C@H](C(=O)N[C@@H](CC(=O)O)C(=O)O)[C@@H](C)O)[C@@H](C)CC)[C@@H](C)CC [Compound 18] (H-H[Aib]EGSFTSELATILDK([γGlu-C18 diacid])QAARDFIAWLIQHKITD-OH)
Mean food consumption ([1]; After 1st dose (Day 2), cohort 1.0 mg): 99.0%
Mean food consumption ([1]; After 1st dose (Day 2), cohort 2.25 mg): 95.4%
Mean food consumption ([1]; After 1st dose (Day 2), cohort 3.5 mg): 99.2% and 96.2%
Mean food consumption ([1]; After 1st dose (Day 2), cohort 3.5/6.0 mg): 87.5%
Mean food consumption ([1]; After 4th dose (Day 23), cohort 1.0 mg weekly): 98.6%
Mean food consumption ([1]; After 4th dose (Day 23), cohort 2.25 mg weekly): 95.8%
Mean food consumption ([1]; After 4th dose (Day 23), cohort 3.5 mg weekly): 93.2%
Mean food consumption ([1]; After 4th dose (Day 23), cohort 3.5/6.0 mg weekly): 62.5%
Mean food consumption ([1]; Baseline, cohort 1.0 mg): 99.2%
Mean food consumption ([1]; Baseline, cohort 2.25 mg): 100%
Mean food consumption ([1]; Baseline, cohort 3.5 mg): 100%
Mean food consumption ([1]; Baseline, cohort 3.5/6.0 mg): 95.8%
Subjects experiencing decreased appetite [3, 6]: 6/7 and 6
Subjects experiencing nausea [3, 6]: 4
Subjects experiencing vomiting [3, 6]: 3
Subjects experiencing decreased appetite ([3]; 4 weekly s.c. doses of 1.0 mg): 0
Subjects experiencing nausea ([3]; 4 weekly s.c. doses of 1.0 mg): 1
Subjects experiencing vomiting ([3]; 4 weekly s.c. doses of 1.0 mg): 0
Subjects experiencing decreased appetite ([3]; 4 weekly s.c. doses of 2.25 mg): 3/7 and 3
Subjects experiencing nausea ([3]; 4 weekly s.c. doses of 2.25 mg): 1
Subjects experiencing vomiting ([3]; 4 weekly s.c. doses of 2.25 mg): 0
Subjects experiencing decreased appetite ([3]; 4 weekly s.c. doses of 3.5 mg): 2/7 and 2
Subjects experiencing nausea ([3]; 4 weekly s.c. doses of 3.5 mg): 0
Subjects experiencing vomiting ([3]; 4 weekly s.c. doses of 3.5 mg): 0
Subjects experiencing decreased appetite ([4]; single s.c. dose 0.02 mg): 0
Subjects experiencing nausea ([4]; single s.c. dose 0.02 mg): 2
Subjects experiencing vomiting ([4]; single s.c. dose 0.02 mg): 0
Subjects experiencing decreased appetite ([4]; single s.c. dose 0.07 mg): 1
Subjects experiencing nausea ([4]; single s.c. dose 0.07 mg): 0
Subjects experiencing vomiting ([4]; single s.c. dose 0.07 mg): 0
Subjects experiencing decreased appetite ([4]; single s.c. dose 0.2 mg): 0
Subjects experiencing nausea ([4]; single s.c. dose 0.2 mg): 1
Subjects experiencing vomiting ([4]; single s.c. dose 0.2 mg): 0
Subjects experiencing decreased appetite ([4]; single s.c. dose 0.6 mg): 0
Subjects experiencing nausea ([4]; single s.c. dose 0.6 mg): 0
Subjects experiencing vomiting ([4]; single s.c. dose 0.6 mg): 0
Subjects experiencing decreased appetite ([4]; single s.c. dose 1.5 mg): 3/6 and 3
Subjects experiencing nausea ([4]; single s.c. dose 1.5 mg): 0
Subjects experiencing vomiting ([4]; single s.c. dose 1.5 mg): 0
Subjects experiencing decreased appetite ([4]; single s.c. dose 3.0 mg): 2
Subjects experiencing nausea ([4]; single s.c. dose 3.0 mg): 3
Subjects experiencing vomiting ([4]; single s.c. dose 3.0 mg): 2
Subjects experiencing decreased appetite ([4]; single s.c. dose 6.0 mg): 3
Subjects experiencing nausea ([4]; single s.c. dose 6.0 mg): 4
Subjects experiencing vomiting ([4]; single s.c. dose 6.0 mg): 5
Subjects experiencing nausea ([4]; single s.c. dose 7.5 mg): 2
Subjects experiencing vomiting ([4]; single s.c. dose 7.5 mg): 2
Body weight [5]: dose dependent reduction in body weight
